The values below come from patent US11369111B2, “Synergistic composition of nematicide comprising of chalcones” (priority 2017, dated 2022).

For one test, the system named is cucumber crop. The experiment in a line: Effect on growth of cucumber plants in a poly house. In kind it is in vivo.
Test [1] deals with root knot nematodes in soil. The experiment in a line: Effect on root knot nematodes in soil. The test is classed as in vivo, Meloidogyne.
The test system of the next test is root-knot nematodes. Briefly: Gall formation in roots of infected cucumber plants (root gall index). In kind it is in vivo.
Test [2] concerns P. aeruginosa (Gram negative). The experiment in a line: Effect of chalcones on common microorganisms (CFU on nutrient agar plates). In kind it is cell-based, Pseudomonas aeruginosa. The following applies: for Effect on microorganism (Colony Forming Units): 24-48 hours. As for the experimental part:
(§1) Two common soil microorganisms (Pseudomonas aeruginosa and Bacillus subtilis) and two common laboratory microorganisms (Escherichia coli, and Saccharomyces cerevisiae) were tested for the effects of individual chalcones. Microorganisms were grown on nutrient agar plates containing 10^−4, 10^−5, or 10^−6 M concentrations of chalcones and Colony Forming Units (CFU) were counted after 24-48 hours of growth in nutrient agar plates.

For test [3], the system named is B. subtilis (Gram positive). The test is described as above. The test is classed as cell-based, Bacillus subtilis. The note with it: for Effect on microorganism (Colony Forming Units): 24-48 hours. How it is done: as §1
For a further test, the system named is E. coli (Gram negative). Described as above. In kind it is cell-based, Escherichia coli. The note with it: for Effect on microorganism (Colony Forming Units): 24-48 hours. How it is done: as §1
A further test concerns S. cerevisiae. The test is described as above. The test is classed as cell-based, Saccharomyces cerevisiae. The note with it: for Effect on microorganism (Colony Forming Units): 24-48 hours. How it is done: as §1
The next test deals with Caenorhabditis elegans. The note with it: 10^−4 M, laboratory conditions, individually; cited from earlier work.

Regarding `CNC(=O)Oc1cccc2c1OC(C)(C)C2` [Carbofuran], the figures for the “increase in shoot length compared to untreated plants” value with cucumber crop (Day 10 (FIG. 3)), in the test with cucumber crop (Day 21 (FIG. 4)) and with cucumber crop (Day 35 (FIG. 5)) were “did not show similar positive effect”, “did not have similar positive effect” and “did not show similar positive effect”, respectively. Also, the “increase in leaf length compared to untreated plants” value in the test on cucumber crop (Day 10 (FIG. 6)), in the test on cucumber crop (Day 21 (FIG. 7)) and in the test on cucumber crop (Day 35 (FIG. 8)) was “did not show similar positive effect” in each case. The “increase in number of flowers compared to untreated plants” value with cucumber crop (Day 10 (FIG. 9)), with cucumber crop (Day 21 (FIG. 10)) and in the test with cucumber crop (Day 35 (FIG. 11)) was “did not show similar positive effect” throughout. Besides, the “increase in number of fruits compared to untreated plants” value in the test with cucumber crop (Day 21 (FIG. 12)), in the test with cucumber crop (Day 21 (FIG. 13)) and in the test with cucumber crop (Day 21 (FIG. 14)) was “did not show similar positive effect” throughout. In addition, the “Percentage Change compared to untreated, Average Leaf length” value in the test with cucumber crop (after 28 days of treatment) is reported as 6%. The “Percentage Change compared to untreated, Average Shoot length” value in the test with cucumber crop (after 28 days of treatment) came out at 3%. For the same compound, the “Percentage Change compared to untreated, Average number of flowers” value with cucumber crop (after 28 days of treatment) is recorded as −9%. Also, the “Percentage Change compared to untreated, Average number of fruits” value in the test on cucumber crop (after 28 days of treatment) was 50%. The “effect on nematodes in the soil” value in test [1] (after 14 days, even at higher dosages) was “did not show any significant effect”. The “efficacy in killing and maintaining a small number of nematodes in soil” value in test [1] (after 19 days of treatment (FIG. 17-19)) was “do not have the same positive effect”. Further, the “Root gall index (Day 1)” value in the test with root-knot nematodes (Day 1) amounted to 1. Also, in the test with root-knot nematodes (Day 25 of treatment), the “Root gall index (Day 25 of treatment)” value was 2 (2=1-25%). Further, the “Root gall index (Day 45-20 days after second treatment)” value in the test on root-knot nematodes (Day 45, 20 days after second treatment) is given as 4 (4=51-75%).

On to `O=C(/C=C/c1ccccc1)c1ccc(Cl)cc1Cl` [Chalcone 17, (2E)-1-(2,4-Dichlorophenyl)-3-phenyl-2-propen-1-one], for which the “effect on growth of microorganism” value in test [2] and in test [3] was “limit the growth” each time. Also, the “Effect on microorganism (Colony Forming Units)” value (“Effect on microorganism” for short) in test [2] (10^−4 M) came out at 55.8; in test [2] (10^−5 M), 53.9; in test [2] (10^−6 M), 56.0; in test [3] (10^−4 M) it was 69.0; in test [3] (10^−5 M), 51.4; in test [3] (10^−6 M) it was 50.8. Moreover, the “Effect on microorganism” value with E. coli (Gram negative) (10^−4 M) was 115.4; in the test on E. coli (Gram negative) (10^−5 M) it was 131.3; with E. coli (Gram negative) (10^−6 M), 97.3; in the test with S. cerevisiae (10^−4 M) it was 97.0; with S. cerevisiae (10^−5 M) it was 82.8; with S. cerevisiae (10^−6 M), 106.7. Moreover, the nematicidal activity result in the test with Caenorhabditis elegans is recorded as “shown nematicidal activity”.

For the compound `CCOc1ccc(C(=O)/C=C/c2ccccc2)cc1` [Chalcone 25, (2E)-1-(4-Ethoxyphenyl)-3-phenyl-2-propen-1-one], the “effect on growth of microorganism” value in test [2] is “promote the growth”; in test [3] it was “limit the growth”; with E. coli (Gram negative), “does not affect the growth”; with S. cerevisiae, “does not affect the growth”. The “Effect on microorganism” value stood at 148.8 in test [2] (10^−4 M); 148.1 in test [2] (10^−5 M); 141.2 in test [2] (10^−6 M); 55.1 in test [3] (10^−4 M); 55.9 in test [3] (10^−5 M); 83.6 in test [3] (10^−6 M). Besides, the “Effect on microorganism” value amounted to 52.3 with E. coli (Gram negative) (10^−4 M); 69.6 with E. coli (Gram negative) (10^−5 M); 103.3 in the test with E. coli (Gram negative) (10^−6 M); 97.8 with S. cerevisiae (10^−4 M); 125.4 in the test with S. cerevisiae (10^−5 M); 90.3 in the test with S. cerevisiae (10^−6 M). The nematicidal activity result in the test with Caenorhabditis elegans is listed as “shown nematicidal activity”.

As for `O=C(/C=C/c1ccccc1)c1cccs1` [Chalcone 30, (2E)-3-Phenyl-1-(2-thienyl)-2-propen-1-one], the nematicidal activity entry in the test on Caenorhabditis elegans is on record as “shown nematicidal activity”.
